In BindingDB's records for doi:10.1016/j.bmcl.2015.12.052 (Janssen Research and Development, 2016):

Target: T1, P2X purinoceptor 7 (Rattus norvegicus, UniProt Q64663)
T1 sequence (Q64663 whole entry): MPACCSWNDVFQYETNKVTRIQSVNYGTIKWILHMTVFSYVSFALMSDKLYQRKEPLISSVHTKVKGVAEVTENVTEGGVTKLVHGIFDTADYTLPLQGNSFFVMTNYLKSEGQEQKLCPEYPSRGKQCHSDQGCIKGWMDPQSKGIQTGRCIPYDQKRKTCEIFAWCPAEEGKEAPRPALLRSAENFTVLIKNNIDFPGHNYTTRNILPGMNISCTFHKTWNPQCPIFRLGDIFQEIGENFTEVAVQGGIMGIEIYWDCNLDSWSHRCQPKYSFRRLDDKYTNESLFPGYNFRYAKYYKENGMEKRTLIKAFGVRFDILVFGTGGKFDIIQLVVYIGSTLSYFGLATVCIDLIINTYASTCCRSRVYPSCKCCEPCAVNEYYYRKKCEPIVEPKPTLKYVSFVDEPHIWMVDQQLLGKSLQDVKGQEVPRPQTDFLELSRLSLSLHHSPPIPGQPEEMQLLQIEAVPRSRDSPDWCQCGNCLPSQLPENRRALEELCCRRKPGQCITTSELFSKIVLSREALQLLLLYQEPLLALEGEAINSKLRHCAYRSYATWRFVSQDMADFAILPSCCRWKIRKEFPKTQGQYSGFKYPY
Experiment: Antagonist activity at rat P2X7 receptor expressed in 1321N1 cells assessed as inhibition of Bz-ATP-induced Ca2+ flux after 30 mins by FLIPR assay

- IC50: > 10 µM
SMILES: C[C@H]1Cn2c(nnc2-c2cnccn2)C(=O)N1Cc1ccccc1 [US10047092, 79]
